Measured values: ChEMBL document CHEMBL1955788, “C-C bond formation at C-2 of a quinoline ring: synthesis of 2-(1H-indol-3-yl)quinoline-3-carbonitrile derivatives as a new class of PDE4 inhibitors” (Bioorg Med Chem, 2012)
Active and inactive are the calls of the source. The calls are words filed in the database; no cut-off is given here.

Columns and labels:
[1] = molecular target: T1, 3',5'-cyclic-AMP phosphodiesterase 4B (Homo sapiens, UniProt Q07343); experiment: Inhibition of PDE4B expressed in HEK293 cells assessed as fold reduction in forskolin-stimulated cAMP production at 10 uM pretreated for 30 mins measured 4 hrs after forskolin challenge by luciferase reporter gene assay; type: functional, cell-based
T1 sequence (Q07343 whole entry): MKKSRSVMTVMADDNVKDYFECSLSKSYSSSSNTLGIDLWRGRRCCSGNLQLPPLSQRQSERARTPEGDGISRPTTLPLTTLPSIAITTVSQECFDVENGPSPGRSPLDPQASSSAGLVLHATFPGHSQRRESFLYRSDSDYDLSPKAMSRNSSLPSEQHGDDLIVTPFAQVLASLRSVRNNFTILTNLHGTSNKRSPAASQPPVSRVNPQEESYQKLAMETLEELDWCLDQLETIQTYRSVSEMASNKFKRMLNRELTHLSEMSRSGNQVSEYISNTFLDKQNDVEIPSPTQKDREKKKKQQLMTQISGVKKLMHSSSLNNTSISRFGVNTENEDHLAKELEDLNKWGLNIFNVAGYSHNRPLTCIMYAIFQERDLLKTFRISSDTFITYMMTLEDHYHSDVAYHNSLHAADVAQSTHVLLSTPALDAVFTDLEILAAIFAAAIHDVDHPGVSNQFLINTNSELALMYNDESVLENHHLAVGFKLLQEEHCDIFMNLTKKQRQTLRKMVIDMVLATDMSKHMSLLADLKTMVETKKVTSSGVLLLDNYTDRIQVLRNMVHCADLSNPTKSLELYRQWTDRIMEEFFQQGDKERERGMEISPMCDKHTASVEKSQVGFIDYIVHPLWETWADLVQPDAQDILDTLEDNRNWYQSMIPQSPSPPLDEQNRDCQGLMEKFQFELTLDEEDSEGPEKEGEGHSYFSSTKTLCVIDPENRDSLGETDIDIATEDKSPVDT

[2] = molecular target: T1, 3',5'-cyclic-AMP phosphodiesterase 4B; experiment: Inhibition of PDE4B expressed in HEK293 cells assessed as fold reduction in forskolin-stimulated cAMP production pretreated for 30 mins measured 4 hrs after forskolin challenge by luciferase reporter gene assay; type: functional, cell-based

Compound	PDE4B inhibition activity (fold reduction in cAMP) [1]	EC50 [2] [nM]	inhibition [2]
COc1ccc2c(-c3nc4ccccc4cc3C#N)c[nH]c2c1	Active	890	Dose-dependent effect
Cc1ccc2nc(-c3c[nH]c4ccc(Br)cc34)c(C#N)cc2c1	Active		
N#Cc1cc2ccccc2nc1-c1c[nH]c2ccccc12	Active		
COc1ccc2[nH]cc(-c3nc4ccc(C)cc4cc3C#N)c2c1	Active		
Cc1ccc2nc(-c3c[nH]c4ccc(Cl)cc34)c(C#N)cc2c1	Active		
COc1ccc2c(-c3nc4ccc(C)cc4cc3C#N)c[nH]c2c1	Active		
Cc1ccc2nc(-c3c[nH]c4ccccc34)c(C#N)cc2c1	Active		
N#Cc1cc2ccccc2nc1-c1c[nH]c2ccc(Cl)cc12	Active		
COc1ccc2[nH]cc(-c3nc4ccccc4cc3C#N)c2c1	Active		
N#Cc1cc2ccccc2nc1-c1c[nH]c2cc(F)c(F)cc12	Active		
N#Cc1cc2ccccc2nc1-c1c[nH]c2ccc(Br)cc12	Active		
Cn1cc(-c2nc3ccccc3cc2C#N)c2ccccc21	Active		
